Experiment [1] relates to CTR astrocytes. Description: Potassium uptake (86Rb) by CTR astrocytes. In kind it is cell-based, human. To be noted: CTR glia/astrocytes, 86Rb uptake, 4 lines. The method, then: (§1) Potassium uptake. Astrocytes were plated onto poly-ornithine- and laminin-coated 24-well plates with 30,000 cells/well. For the potassium uptake assay, astrocytes were incubated with ^86Rb (1.0-3.3 μCi/well) for 15 minutes, and then they were washed three time with ice-cold artificial cerebrospinal fluid (aCSF, 500 μL/well). 0.5N NaOH (200 μL/well) was put into each well for cell lysis, which was put into 5 ml cocktail liquid (Ultima Gold, Fisher Scientific, 509050575) and measured by scintillation counter (Beckman Coulter, LS6500), and the results were normalized to both total protein (BCA Protein Assay Kit, Fisher Scientific, 23227) and cell number (Hemocytometer, Fisher Scientific, 02-671-54). The aCSF solution contained (in mM): 124 NaCl, 2.5 KCl, 1.75 NaH2PO4, 2 MgCl2, 2 CaCl2, 0.04 vitamin C, 10 glucose and 26 NaHCO3, pH 7.4.
To address this hypothesis, qPCR was used to confirm whether these K+ channel-associated genes were dysregulated in SCZ glia. […] Next, functional K^+ uptake was assessed directly, in cultured SCZ- and CTR-derived astrocytes. To obtain mature SCZ and CTR astrocyte cultures, CD44− sorted glial progenitors were cultured in base media supplemented with 10% fetal bovine serum (FBS) and 20 ng/ml BMP4 for 4 weeks, so as to potentiate the differentiation of mature, glial fibrillary acidic protein (GFAP)-expressing, fiber-bearing astrocytes (FIGS. 10A-10C). […] Astrocytes from 4 different SCZ and 4 different CTR lines were then incubated with 86Rb, a surrogate monovalent cation for K^+ uptake (Larsen et al., “Contributions of the Na(+)/K(+)-ATPase, NKCC1, and Kir4.1 to Hippocampal K(+) Clearance and Volume Responses,” Glia 62:608-622 (2014), which is hereby incorporated by reference in its entirety), and rubidium uptake measured as a function of both cell number and total protein.

The test system of experiment [2] is SCZ astrocytes. Description: Potassium uptake (86Rb) by SCZ astrocytes. In kind it is cell-based, human. To be noted: 86Rb uptake, 4 lines. As for the experimental part: as §1, with “The aCSF solution contained (in mM): 124 NaCl, 2.5 KCl, 1.75 NaH2PO4, 2 MgCl2, 2 CaCl2, 0.04 vitamin C, 10 glucose and 26 NaHCO3, pH 7.4.” left out
To address this hypothesis, qPCR was used to confirm whether these K+ channel-associated genes were dysregulated in SCZ glia. […] Next, functional K^+ uptake was assessed directly, in cultured SCZ- and CTR-derived astrocytes. […] Astrocytes from 4 different SCZ and 4 different CTR lines were then incubated with 86Rb, a surrogate monovalent cation for K^+ uptake (Larsen et al., “Contributions of the Na(+)/K(+)-ATPase, NKCC1, and Kir4.1 to Hippocampal K(+) Clearance and Volume Responses,” Glia 62:608-622 (2014), which is hereby incorporated by reference in its entirety), and rubidium uptake measured as a function of both cell number and total protein.

For the molecule `CCCCNc1cc(C(=O)O)cc(S(N)(=O)=O)c1Oc1ccccc1` [bumetanide], the “K+ uptake” value in experiment [1] is “significantly inhibited”; in experiment [2] it was “neither ouabain nor bumetanide affected”.

Consider `C[C@@H]1O[C@@H](O[C@H]2C[C@@H](O)[C@]3(CO)[C@H]4[C@H](O)C[C@]5(C)[C@@H](C6=CC(=O)OC6)CC[C@]5(O)[C@@H]4CC[C@]3(O)C2)[C@H](O)[C@H](O)[C@H]1O` [ouabain], for which the figures for the “K+ uptake” value in experiment [1] and in experiment [2] were “significantly inhibited” and “neither ouabain nor bumetanide affected”, respectively.

“tertiapin (ALCNCNRIIIPHMCWKKCGKK; UniProt P56587 1-21, looked up) [drug which targets Kir channels]”: in experiment [1], the “K+ uptake” value was “did not”.

The values above are taken from patent US20220025379A1, “METHODS OF TREATING SCHIZOPHRENIA AND OTHER NEUROPSYCHIATRIC DISORDERS” (UNIVERSITY OF ROCHESTER, priority 2018, published 2022).
